The numbers were not newly measured in patent US10448644B2, “Fungicide composition for natural fibers and natural fiber components” (Lisa Draexlmaier Gmbh, priority 2014, dated 2019), which cites them from elsewhere.

The conditions of data set [1]: animal experiments.
For data set [2] the following is noted: according to the German Federal Institute for Health Protection and Veterinary Medicine.

For the molecule `c1ccc2[nH]c(-c3cscn3)nc2c1` [thiabendazole], the carcinogenic effect entry in data set [1] is recorded as “found to have a carcinogenic effect”. Besides, the toxicity entry in data set [2] is “low”.
